Data taken from patent US10723770B2, “Crystal structure of the large ribosomal subunit from S. aureus” (Yeda Research and Development Co. Ltd., priority 2015, dated 2020).
Converted amounts (≈) assume the structure as drawn.

Tests used:
[1] = tested on: SA ribosomes; experiment: S. aureus cell free in vitro transcription-translation assay (luciferase reporter); type: biochemical, Staphylococcus aureus; details: for IC50, inhibition of protein synthesis: luciferase luminescence, S. aureus system
Method: The SA ribosomes activity was tested and its level was determined in a bacterial coupled transcription/translation assay system which measures the expression of the luciferase gene, according to Murray, R. W. et al. [Antimicrobial agents and chemotherapy, 2001, 45(6), p. 1900-1904]. Briefly, the luciferase gene was inserted into plasmid with T7 RNA polymerase promoter. The 30 μl reaction's volume contained 160 mM Hepes-KOH buffer (pH 7.5), 6.5% PEG 8K, 0.074 mg/ml tyrosine, 1.3 mM ATP, 0.86 mM CTP, GTP and UTP, 208 mM potassium glutamate, 83 mM creatine phosphate, 28 mM NH4OAc, 0.663 mM cAMP, 1.8 mM DTT, 0.036 mg/ml folinic acid, 0.174 mg/ml E. coli tRNA mix, 1 mM amino acid, 0.25 mg/ml creatine kinase, 0.027 mg/ml T7 RNA polymerase, ribosome free E. coli cell free extract, 300 nM of SA ribosomes and 0.003 μg/μl luciferase plasmid.
The reaction mixture was incubated at 37° C. for 1 hour, and erythromycin was added at a final concentration of 8 μM in order to terminate the reaction. 50 μl of Luciferin Assay Reagent (LAR, Promega) was added to the mixture and luminescence was measured in order to quantify the reaction's products.
FIGS. 20A-B present the results of in vitro transcription-translation cell-free inhibition assays of bacterial protein synthesis, wherein the inhibitory effect on protein expression in S. aureus system of BC-3205 is presented in FIG. 20A and of lefamulin is presented in FIG. 20B. The activity of the reporter protein (luciferase) in the presence of various concentrations of BC-3205 and lefamulin is shown as arbitrary unit of luminescence [a.u.].

[2] = tested on: Staphylococcus aureus; details: cited from earlier work

SMILES | IC50, inhibition of protein synthesis [1] [µg/mL] | MIC against SA [2] [µg/mL] | potency against SA relative to linezolid ([2]; more potent than linezolid) | IC50 against S. aureus ribosome compared to E. coli ones ([1]; in words only, data not shown)
C=C[C@]1(C)C[C@@H](OC(=O)CS[C@H]2CCCN(C(=O)[C@H](N)C(C)C)C2)[C@]2(C)[C@H](C)CC[C@]3(CCC(=O)[C@H]32)[C@@H](C)[C@@H]1O [BC-3205] | 0.42 | 0.06 (≈ 0.104 µM) | 16-32 fold | 
C=C[C@]1(C)C[C@@H](OC(=O)CS[C@@H]2CC[C@@H](N)C[C@H]2O)[C@]2(C)[C@H](C)CC[C@]3(CCC(=O)[C@H]32)[C@@H](C)[C@@H]1O [lefamulin] | 0.09 |  |  | 
CCC[C@@H]1C[C@@H](C(=O)N[C@@H]([C@H]2O[C@H](SC)[C@H](O)[C@@H](O)[C@H]2O)[C@@H](C)O)N(C)C1 [lincomycin] |  |  |  | super low IC50
